Laboratory results reported in ChEMBL document CHEMBL4828769, “Discovery of AS-0141, a Potent and Selective Inhibitor of CDC7 Kinase for the Treatment of Solid Cancers” (J Med Chem, 2021).
Calls of active or inactive are those of the source. The rule behind the calls is not given here.

Legend:
[1] = biological target: T1, Cell division cycle 7-related protein kinase (Homo sapiens, UniProt O00311); test: Inhibition of CDC7 in human COLO 205 cells assessed as reduction in phosphorylation of MCM2 at 1 uM preincubated for 48 hrs followed by compound washout measured after 24 hrs by Western blot analysis; type: cell-based
Target sequence in this assay (O00311 whole entry, looked up): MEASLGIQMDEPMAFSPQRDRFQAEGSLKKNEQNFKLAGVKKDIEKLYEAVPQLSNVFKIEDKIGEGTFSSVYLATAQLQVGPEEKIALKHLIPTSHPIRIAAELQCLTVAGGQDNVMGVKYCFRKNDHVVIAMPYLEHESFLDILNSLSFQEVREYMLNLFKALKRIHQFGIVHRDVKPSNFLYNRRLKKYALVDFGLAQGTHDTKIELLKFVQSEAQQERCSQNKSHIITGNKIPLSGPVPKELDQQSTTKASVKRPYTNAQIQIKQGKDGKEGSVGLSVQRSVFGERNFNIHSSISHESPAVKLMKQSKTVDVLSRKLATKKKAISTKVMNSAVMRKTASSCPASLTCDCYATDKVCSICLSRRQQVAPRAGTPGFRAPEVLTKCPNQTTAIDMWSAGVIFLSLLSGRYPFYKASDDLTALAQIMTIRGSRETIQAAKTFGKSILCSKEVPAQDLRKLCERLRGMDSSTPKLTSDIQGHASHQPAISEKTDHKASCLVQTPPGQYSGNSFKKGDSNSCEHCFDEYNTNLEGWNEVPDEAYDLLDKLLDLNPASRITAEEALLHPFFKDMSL

[2] = biological target: T1, Cell division cycle 7-related protein kinase; test: Reversible inhibition of human CDC7 assessed as off-rate preincubated for 50 mins followed by substrate addition in presence of ATP by rapid dilution assay
Target sequence in this assay (O00311 whole entry, looked up): as above

[3] = Inhibition of human CDC7/ASK using FITC-labelled MCM2 substrate in presence of 5 uM of ATP
[4] = Inhibition of human CDC7/ASK using FITC-labelled MCM2 substrate in presence of 1 mM of ATP
COLO 205 = test: Induction of cell cycle arrest in human COLO205 cells assessed as accumulation of cells at sub-G1 phase at 1 uM incubated for 48 hrs by propidium iodide staining based flow cytometry analysis; type: functional
[5] = Metabolic stability in human liver microsomes assessed as parent compound remaining after 30 mins; type: ADME, Microsome; details: liver microsomes, read-out: Stability
[6] = Metabolic stability in rat liver microsomes assessed as parent compound remaining after 30 mins; type: ADME, Microsome; details: read-out: Stability
[7] = Metabolic stability in dog liver microsomes assessed as parent compound remaining after 30 mins; type: ADME, Canis lupus familiaris, Microsome; details: read-out: Stability
[8] = Metabolic stability in mouse liver microsomes assessed as parent compound remaining after 30 mins; type: ADME, Microsome; details: liver microsomes, read-out: Stability
[9] = Apparent permeability across apical to basolateral side in human Caco-2 cells; type: ADME, cell-based
[10] = Protein binding in human plasma assessed as unbound fraction; type: ADME, cell-free
[11] = biological target: T2, Serine/threonine-protein kinase pim-1 (Homo sapiens, UniProt P11309); test: Inhibition of PIM1 (unknown origin) at 0.1 uM in presence of 1 mM ATP relative to control
Target sequence in this assay (P11309 whole entry, looked up): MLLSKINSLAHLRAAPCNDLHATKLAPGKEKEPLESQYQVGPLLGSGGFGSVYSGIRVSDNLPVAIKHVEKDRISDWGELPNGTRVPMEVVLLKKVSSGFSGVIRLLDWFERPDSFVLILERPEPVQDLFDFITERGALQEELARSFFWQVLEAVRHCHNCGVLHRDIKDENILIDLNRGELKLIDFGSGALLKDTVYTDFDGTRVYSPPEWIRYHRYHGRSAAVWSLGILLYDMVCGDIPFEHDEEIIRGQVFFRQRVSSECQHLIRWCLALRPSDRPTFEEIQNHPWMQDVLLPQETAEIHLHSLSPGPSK

[12] = biological target: T3, Glycogen synthase kinase-3 alpha (Homo sapiens, UniProt P49840); test: Inhibition of GSK3alpha (unknown origin) at 0.1 uM in presence of 1 mM ATP relative to control
Target sequence in this assay (P49840 2-483 limits assumed): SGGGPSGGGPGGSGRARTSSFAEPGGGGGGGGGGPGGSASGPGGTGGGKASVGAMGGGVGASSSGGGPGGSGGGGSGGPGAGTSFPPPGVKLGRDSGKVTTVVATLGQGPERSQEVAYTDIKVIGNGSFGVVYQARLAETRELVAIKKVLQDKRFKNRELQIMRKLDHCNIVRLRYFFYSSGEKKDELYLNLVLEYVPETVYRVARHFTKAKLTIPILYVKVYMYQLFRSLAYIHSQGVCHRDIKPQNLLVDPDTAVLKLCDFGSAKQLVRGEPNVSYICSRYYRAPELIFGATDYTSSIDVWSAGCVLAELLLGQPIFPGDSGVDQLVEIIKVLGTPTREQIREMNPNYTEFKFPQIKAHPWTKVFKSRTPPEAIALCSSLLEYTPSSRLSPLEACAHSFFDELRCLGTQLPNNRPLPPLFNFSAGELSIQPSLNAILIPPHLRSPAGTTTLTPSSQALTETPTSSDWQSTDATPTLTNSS

[13] = biological target: T4, Dual specificity protein kinase CLK1 (Homo sapiens, UniProt P49759); test: Inhibition of CLK1 (unknown origin) at 0.1 uM in presence of 1 mM ATP relative to control
Target sequence in this assay (P49759 whole entry, looked up): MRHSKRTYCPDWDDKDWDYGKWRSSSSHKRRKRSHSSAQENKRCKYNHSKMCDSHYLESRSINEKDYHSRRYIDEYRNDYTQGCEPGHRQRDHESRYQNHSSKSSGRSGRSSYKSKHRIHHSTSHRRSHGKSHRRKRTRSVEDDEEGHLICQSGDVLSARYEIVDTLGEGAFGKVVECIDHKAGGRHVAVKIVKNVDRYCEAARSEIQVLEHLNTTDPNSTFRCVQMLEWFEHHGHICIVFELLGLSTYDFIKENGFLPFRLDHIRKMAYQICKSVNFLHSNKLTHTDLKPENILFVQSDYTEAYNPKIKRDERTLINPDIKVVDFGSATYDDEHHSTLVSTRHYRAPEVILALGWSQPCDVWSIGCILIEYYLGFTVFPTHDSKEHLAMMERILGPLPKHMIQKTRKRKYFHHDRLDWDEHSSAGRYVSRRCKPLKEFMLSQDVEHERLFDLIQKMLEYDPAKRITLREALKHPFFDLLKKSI

[14] = biological target: T5, Dual specificity protein kinase CLK2 (Homo sapiens, UniProt P49760); test: Inhibition of CLK2 (unknown origin) at 0.1 uM in presence of 1 mM ATP relative to control
Target sequence in this assay (P49760 whole entry, looked up): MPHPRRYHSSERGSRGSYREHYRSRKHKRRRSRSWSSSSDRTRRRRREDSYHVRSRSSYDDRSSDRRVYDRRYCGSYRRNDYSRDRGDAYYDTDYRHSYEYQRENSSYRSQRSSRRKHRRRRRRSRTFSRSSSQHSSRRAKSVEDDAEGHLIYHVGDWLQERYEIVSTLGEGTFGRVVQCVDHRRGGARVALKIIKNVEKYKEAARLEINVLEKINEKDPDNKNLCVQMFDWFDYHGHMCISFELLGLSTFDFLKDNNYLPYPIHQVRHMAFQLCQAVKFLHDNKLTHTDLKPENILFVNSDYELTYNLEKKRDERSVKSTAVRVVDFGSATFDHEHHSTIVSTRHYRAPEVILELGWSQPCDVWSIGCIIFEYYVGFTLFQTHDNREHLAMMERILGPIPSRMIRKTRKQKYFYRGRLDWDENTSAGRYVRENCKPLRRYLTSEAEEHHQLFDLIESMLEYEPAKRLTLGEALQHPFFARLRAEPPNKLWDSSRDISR

Homo sapiens [15] = species: Homo sapiens; test: Selectivity index, ratio of IC50 for inhibition of human CDC7 in presence of 1 mM ATP without preincubation to IC50 for inhibition of human CDC7 using FITC-labelled MCM2 substrate preincubated for 30 mins followed by substrate addition and measured after 5 hrs in presence of 1 mM ATP
[16] = biological target: T2, Serine/threonine-protein kinase pim-1; test: Inhibition of PIM1 (unknown origin) in presence of 1 mM ATP without preincubation
Target sequence in this assay (P11309 whole entry): as the sequence (P11309 whole entry, looked up) above

[17] = biological target: T4, Dual specificity protein kinase CLK1; test: Inhibition of CLK1 (unknown origin) in presence of 1 mM ATP with preincubation
Target sequence in this assay (P49759 whole entry): as the sequence (P49759 whole entry, looked up) above

[18] = biological target: T5, Dual specificity protein kinase CLK2; test: Inhibition of CLK2 (unknown origin) in presence of 1 mM ATP without preincubation
Target sequence in this assay (P49760 whole entry): as the sequence (P49760 whole entry, looked up) above

[19] = biological target: T3, Glycogen synthase kinase-3 alpha; test: Inhibition of GSK3alpha (unknown origin) in presence of 1 mM ATP without preincubation
Target sequence in this assay (P49840 whole entry): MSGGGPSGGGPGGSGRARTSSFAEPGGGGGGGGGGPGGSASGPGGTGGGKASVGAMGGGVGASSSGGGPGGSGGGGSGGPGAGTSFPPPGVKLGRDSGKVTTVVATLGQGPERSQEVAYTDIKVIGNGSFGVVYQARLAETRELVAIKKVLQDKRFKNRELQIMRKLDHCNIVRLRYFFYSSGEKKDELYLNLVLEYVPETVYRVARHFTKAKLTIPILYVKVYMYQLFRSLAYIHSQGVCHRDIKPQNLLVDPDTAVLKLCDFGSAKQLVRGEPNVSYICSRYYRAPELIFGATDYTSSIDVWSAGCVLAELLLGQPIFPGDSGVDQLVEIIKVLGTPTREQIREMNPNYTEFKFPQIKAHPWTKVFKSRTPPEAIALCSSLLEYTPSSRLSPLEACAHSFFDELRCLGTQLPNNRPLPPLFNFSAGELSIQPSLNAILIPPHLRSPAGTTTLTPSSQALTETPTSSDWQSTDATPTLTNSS

[20] = biological target: T3, Glycogen synthase kinase-3 alpha; test: Inhibition of GSK3alpha (unknown origin) in presence of 1 mM ATP with preincubation
Target sequence in this assay (P49840 whole entry): as above

Homo sapiens [21] = species: Homo sapiens; test: Selectivity index, ratio of IC50 for GSK3alpha (unknown origin) in presence of 1 mM ATP without preincubation to IC50 for GSK3alpha (unknown origin) in presence of 1 mM ATP with preincubation
[22] = biological target: T1, Cell division cycle 7-related protein kinase; test: Inhibition of CDC7 in human SW-620 cells assessed as reduction in phosphorylation of MCM2 at Ser53 residue incubated for 48 hrs by Western blot analysis; type: cell-based
[23] = biological target: T1, Cell division cycle 7-related protein kinase; test: Inhibition of CDC7 in human SW-620 cells assessed as reduction in phosphorylation of MCM2 at Ser40 residue incubated for 48 hrs by Western blot analysis; type: cell-based
[24] = biological target: T1, Cell division cycle 7-related protein kinase; test: Inhibition of CDC7 in human SW-620 cells assessed as reduction in phosphorylation of MCM2 at Ser41 residue at 0.03 to 1 uM incubated for 48 hrs by Western blot analysis; type: cell-based; details: dose 0.03-1 µM
Target sequence in this assay (O00311 whole entry, looked up): as the sequence (O00311 whole entry, looked up) above

[25] = Half life in mouse at 1 mg/kg, iv; type: ADME, organism-based; details: in vivo
[26] = Half life in mouse at 10 mg/kg, po; type: ADME, organism-based; details: in vivo
[27] = Half life in rat at 2 mg/kg, iv; type: ADME, organism-based; details: in vivo
[28] = Half life in dog at 2 mg/kg, po; type: ADME, organism-based, Canis lupus familiaris; details: in vivo
[29] = Tmax in rat at 10 mg/kg, po; type: ADME, organism-based; details: in vivo
[30] = Tmax in dog at 2 mg/kg, po; type: ADME, organism-based, Canis lupus familiaris; details: in vivo
[31] = Cmax in mouse at 1 mg/kg, iv; type: ADME, organism-based; set-up: route intravenous, dose 1 mg/kg; details: in vivo
[32] = Cmax in mouse at 10 mg/kg, po; type: ADME, organism-based; set-up: route oral, dose 10 mg/kg; details: in vivo
[33] = Cmax in rat at 2 mg/kg, iv; type: ADME, organism-based; set-up: route intravenous, dose 2 mg/kg; details: in vivo
[34] = Cmax in rat at 10 mg/kg, po; type: ADME, organism-based; set-up: route oral, dose 10 mg/kg; details: in vivo
[35] = Cmax in dog at 1 mg/kg, iv; type: ADME, organism-based, Canis lupus familiaris; set-up: route intravenous, dose 1 mg/kg; details: in vivo
[36] = Cmax in dog at 2 mg/kg, po; type: ADME, organism-based, Canis lupus familiaris; set-up: route oral, dose 2 mg/kg; details: in vivo
[37] = AUC(0 to infinity) in mouse at 1 mg/kg, iv; type: ADME, organism-based; set-up: route intravenous, time infinity, dose 1 mg/kg; details: in vivo
[38] = AUC(0 to infinity) in mouse at 10 mg/kg, po; type: ADME, organism-based; set-up: time infinity, route oral, dose 10 mg/kg; details: in vivo
[39] = AUC(0 to infinity) in rat at 2 mg/kg, iv; type: ADME, organism-based; set-up: route intravenous, time infinity, dose 2 mg/kg; details: in vivo
[40] = AUC(0 to infinity) in rat at 10 mg/kg, po; type: ADME, organism-based; set-up: time infinity, route oral, dose 10 mg/kg; details: in vivo
[41] = AUC(0 to infinity) in dog at 1 mg/kg, iv; type: ADME, organism-based, Canis lupus familiaris; set-up: route intravenous, time infinity, dose 1 mg/kg; details: in vivo
[42] = AUC(0 to infinity) in dog at 2 mg/kg, po; type: ADME, organism-based, Canis lupus familiaris; set-up: route oral, time infinity, dose 2 mg/kg; details: in vivo
[43] = Volume of distribution in mouse at 1 mg/kg, iv; type: ADME, organism-based; details: in vivo
[44] = Volume of distribution in rat at 2 mg/kg, iv; type: ADME, organism-based; details: in vivo
[45] = Volume of distribution in dog at 1 mg/kg, iv; type: ADME, organism-based, Canis lupus familiaris; details: in vivo
[46] = Clearance in mouse at 1 mg/kg, iv; type: ADME, organism-based; details: in vivo
[47] = Clearance in dog at 1 mg/kg, iv; type: ADME, organism-based, Canis lupus familiaris; details: in vivo
[48] = MRT in mouse at 1 mg/kg, iv; type: ADME, organism-based; details: in vivo
[49] = MRT in dog at 1 mg/kg, iv; type: ADME, organism-based, Canis lupus familiaris; details: in vivo
[50] = Oral bioavailability in dog at 2 mg/kg; type: ADME, organism-based, Canis lupus familiaris; details: in vivo
SW-620 [51] = test: Antitumor activity against human SW-620 cells xenografted in BALB/c nude mouse assessed as tumor growth inhibition at 120 mg/kg, po administered daily for 21 days; type: functional; details: SW-620, po, 504 h, time 21 day, read-out: TGI
SW-620 [52] = test: Antitumor activity against human SW-620 cells xenografted in BALB/c nude mouse assessed as tumor growth inhibition at 60 mg/kg, po administered as 4 days on and 2 days off schedule for 21 days; type: functional; details: SW-620, po, 504 h, time 21 day, read-out: TGI

Structure (SMILES): CCOC(=O)C1=C(NN2CCN(CC(F)(F)F)CC2)O/C(=C\c2c[nH]c3ncccc23)C1=O [MONZOSERTIB]
- inhibition [1]: Active
- T1/2 [2]: 3.58 h
- IC50 [3]: 8.2 nM
- IC50 [4]: 503 nM
- Activity (COLO 205): 51%
- remaining at 0.5 h [5]: 89%
- remaining at 0.5 h [6]: 34.9%
- remaining at 0.5 h [7]: 81%
- remaining at 0.5 h [8]: 18.7%
- Papp A→B [9]: 24.9 ×10⁻⁶ cm/s
- fraction unbound [10]: 0.088
- inhibition [11]: > 30%
- inhibition [12]: > 30%
- inhibition [13]: > 30%
- inhibition [14]: > 30%
- Ratio IC50 (Homo sapiens [15]): 210
- IC50 [16]: 30 nM
- IC50 [17]: 206 nM
- IC50 [18]: 270 nM
- IC50 [19]: 189 nM
- IC50 [20]: 251 nM
- Ratio IC50 (Homo sapiens [21]): 0.8
- IC50 [22]: 53 nM
- inhibition ([22]; dose 0.03-1 µM): Dose-Dependent Effect
- IC50 [23]: 36 nM
- inhibition ([23]; dose 0.03-1 µM): Dose-Dependent Effect
- inhibition [24]: inactive
- half-life [25]: 0.32 h
- half-life [26]: 1.45 h
- half-life [27]: 3.01 h
- half-life [28]: 4.19 h
- Tmax [29]: 1 h
- Tmax [30]: 2.67 h
- Cmax [31]: 408 ng/mL
- Cmax [32]: 285 ng/mL
- Cmax [33]: 1210 ng/mL
- Cmax [34]: 426 ng/mL
- Cmax [35]: 298 ng/mL
- Cmax [36]: 96.1 ng/mL
- AUC(0-inf) [37]: 149 ng·h/mL
- AUC(0-inf) [38]: 454 ng·h/mL
- AUC(0-inf) [39]: 887 ng·h/mL
- AUC(0-inf) [40]: 2410 ng·h/mL
- AUC(0-inf) [41]: 1250 ng·h/mL
- AUC(0-inf) [42]: 834 ng·h/mL
- Vd [43]: 3.1 L/kg
- Vd [44]: 3.24 L/kg
- Vd [45]: 4.22 L/kg
- clearance [46]: 112 mL/min/kg
- clearance [47]: 13.5 mL/min/kg
- MRT [48]: 0.3 h
- MRT [49]: 5.26 h
- bioavailability [50]: 33.3%
- inhibition in vivo at 120 mg/kg (SW-620 [51]): 88%
- inhibition in vivo at 60 mg/kg (SW-620 [52]): 83%
